# Measured values: US9828343B2, “Histone demethylase inhibitors” (Celgene Quanticel Research, Inc., priority 2012, dated 2017)
# Target: JMJD2C (Homo sapiens (Human), UniProt Q9H3R0)
# Assay: JMJD2C TR-FRET in vitro enzyme inhibition assay
# Type: biochemical
# Conditions: 0.3 nM JMJD2C, H3K9me3-biotin peptide, 2 μM alpha-ketoglutaric acid
# Text: This assay determines the ability of a test compound to inhibit Jarid1A, Jarid1B, and JMJD2C demethylase activity. Baculovirus expressed Jarid1A (GenBank Accession #NM_001042603, AA1-1090) was purchased from BPS Bioscience (Cat#50110). Baculovirus expressed Jarid1B (GenBank Accession #NM_006618, AA 2-751) was purchased from BPS Bioscience (Cat #50121) or custom made by MolecularThroughput. Baculovirus-expressed JMJD2C (GenBank Accession #BC143571, AA 2-372) was purchased from BPS Bioscience (Cat#50105).
# The ability of test compounds to inhibit the activity of JMJD2C was determined in 384-well plate format under the following reaction conditions: 0.3 nM JMJD2C, 300 nM H3K9me3-biotin labeled peptide (Anaspec cat #64360), 2 μM alpha-ketoglutaric acid in assay buffer of 50 mM HEPES, pH7.3, 0.005% Brij35, 0.5 mM TCEP, 0.2 mg/ml BSA, 50 μM sodium L-ascorbate, and 2 μM ammonium iron(II) sulfate. Reaction product was determined quantitatively by TR-FRET after the addition of detection reagent Phycolink Streptavidin-allophycocyanin (Prozyme) and Europium-anti-di-methylated histone H3 lysine 9 (H3K9me2) antibody (PerkinElmer) in the presence of 5 mM EDTA in LANCE detection buffer (PerkinElmer) at a final concentration of 50 nM and 1 nM, respectively. […]
# Chain of JMJD2C (Q9H3R0 2-372): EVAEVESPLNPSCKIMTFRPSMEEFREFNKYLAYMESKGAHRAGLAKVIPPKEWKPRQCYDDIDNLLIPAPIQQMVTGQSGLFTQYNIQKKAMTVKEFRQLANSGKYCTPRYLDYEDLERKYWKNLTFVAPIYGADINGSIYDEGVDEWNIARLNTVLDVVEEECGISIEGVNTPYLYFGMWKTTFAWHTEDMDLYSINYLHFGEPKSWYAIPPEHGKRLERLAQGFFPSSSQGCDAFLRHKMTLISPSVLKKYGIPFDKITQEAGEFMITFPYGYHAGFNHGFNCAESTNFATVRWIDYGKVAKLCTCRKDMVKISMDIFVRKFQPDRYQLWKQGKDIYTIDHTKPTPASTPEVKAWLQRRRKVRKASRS
row,Compound,IC50 [nM]
1,"3-{[(6-fluoro-3,4-dihydro-2H-chromen-4-yl)methyl]amino}pyridine-4-carboxylic acid [Example 65]",< 100
2,"O=C(O)c1ccncc1NCC1(O)CCCc2cc(Cl)ccc21 (centres unmarked) [Example 68, 3-{[(6-chloro-1-hydroxy-1,2,3,4-tetrahydronaphthalen-1-yl)methyl]amino}pyridine-4-carboxylic acid]",100 to 1000
